Where two headings read alike, the source gives them in different places.
Key:
Format in all cases: biochemical
[1] = target: T1, MurA (UDP-N-acetylglucosamine 1-carboxyvinyltransferase) (Enterobacter cloacae, UniProt P33038); assay: crystal structure at […] Å
[2] = target: T1, MurA (UDP-N-acetylglucosamine 1-carboxyvinyltransferase); assay: crystal structure at […] Å; remark: listed apart in the source
[3] = target: MurA (UDP-N-acetylglucosamine 1-carboxyvinyltransferase) (Escherichia coli, UniProt P0A749); assay: malachite green assay of residual MurA activity
Chain of MurA (UDP-N-acetylglucosamine 1-carboxyvinyltransferase) (Escherichia coli, UniProt P0A749) (P0A749 whole entry): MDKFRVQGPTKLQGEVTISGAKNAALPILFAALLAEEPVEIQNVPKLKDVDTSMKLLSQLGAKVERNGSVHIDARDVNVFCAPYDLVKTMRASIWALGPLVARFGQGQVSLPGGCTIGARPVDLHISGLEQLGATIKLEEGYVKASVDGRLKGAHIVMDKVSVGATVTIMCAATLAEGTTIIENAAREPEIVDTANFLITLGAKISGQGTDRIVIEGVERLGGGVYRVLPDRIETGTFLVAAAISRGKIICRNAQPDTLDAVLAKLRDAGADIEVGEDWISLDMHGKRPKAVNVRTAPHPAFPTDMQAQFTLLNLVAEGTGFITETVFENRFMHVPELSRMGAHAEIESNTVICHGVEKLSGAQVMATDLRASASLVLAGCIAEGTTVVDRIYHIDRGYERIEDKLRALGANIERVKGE

T1 sequence (P33038 whole entry): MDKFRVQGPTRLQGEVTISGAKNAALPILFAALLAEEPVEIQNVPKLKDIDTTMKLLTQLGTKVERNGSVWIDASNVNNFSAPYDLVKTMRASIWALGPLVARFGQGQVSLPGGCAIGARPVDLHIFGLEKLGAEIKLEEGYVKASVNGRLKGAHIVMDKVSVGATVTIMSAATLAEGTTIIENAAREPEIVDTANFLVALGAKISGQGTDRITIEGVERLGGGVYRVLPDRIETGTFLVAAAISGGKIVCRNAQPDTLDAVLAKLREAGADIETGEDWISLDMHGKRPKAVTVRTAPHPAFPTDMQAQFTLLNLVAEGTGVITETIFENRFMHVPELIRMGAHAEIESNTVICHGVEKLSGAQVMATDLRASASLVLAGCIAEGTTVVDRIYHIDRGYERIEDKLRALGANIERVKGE

| Compound | IC50 [1] [µM] | IC50 [2] [µM] | malachite green assay of residual MurA activity [3] |
| --- | --- | --- | --- |
| C[C@@H]1O[C@@H]1P(=O)(O)O [fosfomycin, (1R,2S)-1,2-epoxypropyl phosphonic acid] | 0.25 ± 0.01 |  |  |
| CC1=C(O)C(=O)[C@@H]2O[C@@H]2C1=O [terreic acid] |  | 14 ± 0.6 | terreic acid is a covalent inhibitor of the bacterial cell wall biosynthetic enzyme MurA from E. cloacae and E. coli in-vitro |
